Test results taken from patent US11427588B2, “Compositions and methods for treating neurodegenerative diseases and cardiomyopathy” (THE REGENTS OF THE UNIVERSITY OF CALIFORNIA, priority 2013, dated 2022).
Entries after “also recorded” stand apart in the source; their conditions may differ. Read-outs that look alike come from different tables or passages of the source.

Tests used:
PINK1wt mice [1] = assay: Heart stress model (trans-aortic banding, angiotensin II); type: in vivo; conditions: two weeks dosing, TAB or Angiotensin II; for pathological hypertrophy: 14 days
Description: Stress on the heart also induces pathological hypertrophy and increased apoptosis, and serves as a good model for heart disease. We utilized trans-aortic banding (TAB) and treatment with angiotensin II to increase pressure in the heart and a model for heart attack by induced myocardial infarction. We treated mice as above with kinetin as well as adenine and vehicle controls for two weeks. We then increased pressure in the heart by performing surgery to partially occlude the aorta (TAB) or sham operation. Additionally we directly injected of a bolus of Angiotensin II or saline into the heart (Billia et al., 2011) to increase blood pressure. […] As the depletion of PINK1 leads to more pathological hypertrophy and increased apoptosis, by amplifying PINK1 activity these characteristics of heart failure will be further reduced.

PINK1−/− mice = assay: Induced myocardial infarction model; type: in vivo
Method: Utilizing mice dosed with kinetin, adenine or vehicle for two weeks, we induced myocardial infarction by ligating the left anterior descending artery at the level of the left atrial appendage (Wang et al., 2006) or sham surgery. Following infarct for 24 or 72 hours, we sacrificed the mice and analyzed the heart by TUNEL staining as cardiomyocytes are susceptible to cell death following infarct. […] These experiments replicate our results in neurons in which kinetin treatment will block apoptosis in response to a number of cellular stressors.

SH-SY5Y cells = assay: H2O2 induced apoptosis, Annexin V / PI FACS assay; type: cell-based, human; conditions: for total amount of apoptotic cells: 50 μM for 96 hours, then 400 μM H2O2 for 24 hours
Method: Apoptosis assays and PINK1 shRNA: SH-SY5Y cells (ATCC) were cultured in 1:1 mix of F12K and DMEM supplemented with 20% FBS. PINK1 shRNA lentivirus were produced using a pLKO.1 based shRNA (Sigma) by contransfection with Δ8.9 and pMGD2 vectors in HEK293T cells. SH-SY5Y cells were infected with lentivirus followed by selection with puromycin ([…]). […] Subsequently, cells were stained with Annexin V-FITC and PI and analyzed (FACS Diva) on a FACS LSRII Cytometer ([…]) Apoptosis was calculated as the difference between H2O2 treated samples and the respective control.
Overexpression of PINK1 in neuronal cells (e.g. dopaminergic (DA)) promotes survival in response to oxidative stress and other mitochondrial toxins^7. Before testing the effects of kinetin on apoptosis, we treated DA neurons with 50 μM of either kinetin or adenine and measured cell density after 10 days. […] SH-SY5Y cells were treated with 50 μM kinetin, adenine or DMSO for 96 hours, followed by 400 μM H2O2 treatment for additional 24 hours. Using a cytometry-based FACS assay involving cellular annexin V and propidium iodide staining, we determined the percentage of apoptotic cells after treatment with DMSO, adenine or kinetin.

rat hippocampal neurons = assay: Mitochondrial motility assay in axons; type: cell-based; conditions: 50 μM
Description: (§1) Mitochondrial motility assay: Primary hippocampal neuronal cultures were co-transfected with mitochondrial targeted GFP (mitoGFP) and mCherry-tagged synaptophysin (mCherrySynaptophysin) to allow for the live identification of mitochondria in axons.
(§2) To test if kinetin decreases motility we examined the mobility of axonal mitochondria in hippocampal neurons. Primary hippocampal neuronal cultures were co-transfected with mitoGFP and mCherry-tagged Synaptophysin (mCherrySynaptophysin) to allow for the live identification of mitochondria in axons. […] To test the PINK1 dependency of this process, we treated control mouse C57 (PINK1 wildtype) and PINK1 knockout derived hippocampal neurons with kinetin or 9MK and imaged their mitochondria.

Parkin and Bcl-xL = assay: Phosphorylation level of Parkin and Bcl-xL in neuronal cell lines; type: cell-based
Description: Kinetin mediated PINK1 activity amplification was characterized using a variety of cell lines and primary cells. The HL-1 cell line, an established cardiomyocyte cell line that retains characteristic properties of differentiated cardiac tissue (Claycomb et al., 1998) as well as freshly isolated cardiomyocytes from PINK1wt or PINK1−/− mice. Infected HL-1 cells with a lentivirus expressing shRNA targeting PINK1, were developed to generate a PINK1 knockdown control. To analyze the amplification of PINK1 kinase activity we analyzed the phosphorylation level of Bcl-xL, Mfn2, and Parkin following treatment of PINK1wt and PINK1 knockdown or −/− cell lines with DMSO or 25 μM adenine, kinetin or 9-methyl kinetin (9MK negative control) and fCCCP for three to twenty-four hours following published protocols (Arena et al., 2013; Chen and Dorn, 2013; Kondapalli et al., 2012). […] Accordingly, PINK1wt expressing cells see an increase in PINK1 dependent phosphorylation, but not in those cells where PINK1 has been depleted.

PINK1wt mice [2] = assay: Heart health and performance in mice treated from birth; type: in vivo
Method: PINK1 expression is protective in several mouse models of heart failure. PINK1wt expression will block pathological hypertrophy, increase heart fractional shortening, and prevent ischemia induced death of heart tissue. To assay the effect of kinetin PINK1 wt or PINK1−/− mice were treated with vehicle, adenine or kinetin from birth following published protocols for administration of kinetin (Hims et al., 2007; Shetty et al., 2011). The mice were sacrificed and whole hearts analyzed, and isolated cardiomyocytes from mice at appropriate time periods (e.g. 2 and 6 months). O2 consumption, mitochondrial integrity (mtDNA abundance, mitochondrial capacity and JC-1 fluorescence) caspase 3/7 cleavage activity and TUNEL staining were measured to assess the health of these tissues. According to published results (Billia et al., 2011; Chen and Dorn, 2013), PINK1 activity is essential for normal 02 consumption and maintenance of mitochondrial integrity. Decreased 02 consumption and mitochondrial integrity in PINK1−/− mice was compared to PINK1wt mice. […] Additionally, caspase 3/7 cleavage activity and TUNEL staining of the left ventricle were increased in PINK1−/− mice derived cardiomyocytes compared to PINK1wt.
In addition to these analyses we analyzed the performance of the heart in whole animals. We utilized the same procedure as above and treated either PINK1wt or PINK1−/− mice with vehicle, adenine or kinetin from birth following published protocols for administration of kinetin (Hims et al., 2007; Shetty et al., 2011). […] These characteristics of pathological hypertrophy indicate heart failure in the PINK1−/− mice will not increase as dramatically in PINK1wt mice (Billia et al., 2011). […] These experiments indicate that amplification of PINK1 activity by treatment with kinetin can block age-induced loss in heart function.

[3] = test system: C57 (PINK1 wildtype) derived hippocampal neurons; assay: Mitochondrial motility assay in axons; type: cell-based, mouse
Description: as §1, §2

[4] = test system: PINK1 knockout derived hippocampal neurons; assay: Mitochondrial motility assay in axons; type: cell-based, mouse
Description: as §1, §2

Structure (SMILES) | pathological hypertrophy (PINK1wt mice [1]) | scar size and level of collagen deposition (PINK1−/− mice) | total amount of apoptotic cells (SH-SY5Y cells) | total number of TUNEL positive cells, left ventricle (PINK1wt mice [1]) | mitochondrial movement / motility (rat hippocampal neurons; 48 hours pre-treatment) | velocity of mitochondria that remain in motion (rat hippocampal neurons; 48 hours, retrograde direction) | phosphorylation level of Parkin and Bcl-xL (Parkin and Bcl-xL) | age induced pathological hypertrophy (PINK1wt mice [2]; HBW ratio, cross sectional area, extracellular matrix) | fractional shortening (PINK1wt mice [2]; six month old, echocardiography) | O2 consumption and mitochondrial integrity (PINK1wt mice [2]; treated from birth) | TUNEL staining of the left ventricle (PINK1wt mice [2]; treated from birth) | mitochondrial motility [3] | mitochondrial motility [4] | mitochondrial motility ([4]; listed as Kinetin) | total amount of apoptotic cells (SH-SY5Y cells; listed as Kinetin) | total number of apoptotic cells (SH-SY5Y cells; 48 hours of treatment, then 24 hours of 400 uM hydrogen peroxide)
Nc1ncnc2nc[nH]c12 [adenine, reference compound] | not | not | no significant change | – | – | – | – | – | – | – | – | – | – | – | – | –
c1coc(CNc2ncnc3[nH]cnc23)c1 [kinetin] | reduces the pathological hypertrophy | not | significant decrease; also recorded: blocks apoptosis | reduced the total number of TUNEL positive cells | potently and specifically inhibited | slows; also recorded: decrease in the velocity of mitochondria in the retrograde direction | significant increase | reduces this age induced pathological hypertrophy | still higher fractional shortening | Improved values | further reduced TUNEL staining | decrease in motility | no change in motility | no effect on mitochondrial motility | blocks apoptosis | Decrease in the total number of apoptotic cells
